Test results: ChEMBL document CHEMBL1133687, “Structure-based design of novel bicyclic nonpeptide inhibitors for the src SH2 domain” (J Med Chem, 2000)

Target: Proto-oncogene tyrosine-protein kinase Src (Homo sapiens, UniProt P12931)
Experiment: Binding affinity against Src SH2 domain in competitive fluorescence polarization assay

Sequence of Proto-oncogene tyrosine-protein kinase Src (P12931 2-536 limits assumed): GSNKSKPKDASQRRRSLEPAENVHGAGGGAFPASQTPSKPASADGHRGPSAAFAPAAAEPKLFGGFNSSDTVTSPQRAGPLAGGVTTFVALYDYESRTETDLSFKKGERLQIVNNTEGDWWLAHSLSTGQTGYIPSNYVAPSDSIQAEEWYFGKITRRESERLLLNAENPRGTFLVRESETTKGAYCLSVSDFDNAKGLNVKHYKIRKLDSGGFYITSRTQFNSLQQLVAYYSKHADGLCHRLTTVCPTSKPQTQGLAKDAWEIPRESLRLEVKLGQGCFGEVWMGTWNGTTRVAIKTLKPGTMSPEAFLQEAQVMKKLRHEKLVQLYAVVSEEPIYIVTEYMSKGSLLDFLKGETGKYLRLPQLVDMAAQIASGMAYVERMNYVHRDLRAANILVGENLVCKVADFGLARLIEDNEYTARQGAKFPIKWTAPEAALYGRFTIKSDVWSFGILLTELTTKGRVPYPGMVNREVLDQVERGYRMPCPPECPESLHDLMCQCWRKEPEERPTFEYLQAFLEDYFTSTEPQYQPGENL

Row | Compound | IC50 [nM]
1 | CC(=O)N[C@@H](Cc1ccc(OP(=O)(O)O)cc1)C(=O)N[C@H]1CCCCc2cc(OCC3CCCCC3)c(C(N)=O)cc21 | 100
2 | CC(=O)N[C@@H](Cc1ccc(OP(=O)(O)O)cc1)C(=O)N[C@H]1CCCOc2cc(OCC3CCCCC3)c(C(N)=O)cc21 | 200
3 | CC(=O)N[C@@H](Cc1ccc(OP(=O)(O)O)cc1)C(=O)N[C@@H]1CCCCc2cc(OCC3CCCCC3)c(C(N)=O)cc21 | 8100
4 | CC(=O)N[C@@H](Cc1ccc(OP(=O)(O)O)cc1)C(=O)N[C@@H]1CCCOc2cc(OCC3CCCCC3)c(C(N)=O)cc21 | 1600
5 | CC[C@H](C)[C@H](NC(=O)[C@H](CCC(=O)O)NC(=O)[C@H](CCC(=O)O)NC(=O)[C@@H](N)Cc1ccc(OP(=O)(O)O)cc1)C(=O)O | 5600
